Laboratory results as given in doi:10.1101/2023.06.20.545697v1 (biorxiv, 2023).
≈ marks a conversion by molar mass, not a printed value.

What was measured:
[1] = tested on: Mycobacterium tuberculosis S7; experiment: microbe, parasite or virus in culture; conditions: S7, 120 h, read-out: MIC99 (S7) µM
[2] = tested on: Mycobacterium tuberculosis S6; experiment: microbe, parasite or virus in culture; conditions: S6, 120 h, read-out: MIC99 (S6) µM

| SMILES | MIC99 [1] | MIC99 [2] |
| --- | --- | --- |
| NCCSc1ncn[nH]1 [SF3] | 250 µM (≈ 36.1 µg/mL) |  |
| CC(N)c1ncnn1C (stereo not shown) [SF1] | 250 µM (≈ 31.5 µg/mL) |  |
| CC(C)C(N)c1ncnn1C (stereo not shown) [SF2] | 125 µM (≈ 19.3 µg/mL) | 125 µM (≈ 19.3 µg/mL) |
